Earlier results in patent US7470509B2, “Compositions and methods for the identification, assessment, prevention and therapy of ovarian cancer” (Millennium Pharmaceuticals, Inc., priority 2002, dated 2008).

Test system: tumor
Conditions: U.S. Pat. No. 5,840,929

SMILES: CC(=O)O[C@@]12CO[C@@H]1C[C@H](O)[C@@]1(C)C(=O)[C@H](O)C3=C(C)[C@@H](OC(=O)[C@H](O)[C@@H](NC(=O)OC(C)(C)C)c4ccccc4)C[C@@](O)([C@@H](OC(=O)c4ccccc4)[C@H]21)C3(C)C [Taxotere, docetaxel]
- anti-tumor activity in animal models: good anti-tumor activity
